Results reported in US20170246228A1, “METHOD FOR SUPPRESSING PROLIFERATION AND/OR INDUCING APOPTOSIS OF CANCER CELLS” (Maruhachi Muramatsu, Inc., priority 2016, published 2017).

system: MDA-MB-231 cells; test: Cell proliferation of MDA-MB-231 cells with inhibitors that induce cell-cycle arrest, 3 days of culture; format: cell-based, human; conditions: absence of S. horneri active component, butyrate 10 and 100 μM, roscovitine 10 and 100 nM, sulforaphane 1 and 10 nM, FIG. 2(A)
Protocol: Cells were detached from each culture dishes using 0.2% trpysin plus 0.02% EDTA in Ca^2+/Mg^2+-free PBS for 2 min at 37° C., cells were collected after centrifugation. Cells were resuspended on PBS solution and stained with eosin. Cell numbers were counted under a microscope using a Hemocytometer plate. For each dish, we took the average of two countings.
Data are expressed as the mean±standard deviation (SD). Statistical significance was determined using GraphPad InStat version 3 for Windows XP (GraphPad Software Inc. La Jolla, Calif.). Multiple comparisons were performed by one-way analysis of variance (ANOVA) with Tukey-Kramer multiple comparisons post-test for parametric data as indicated. Data indicated P<0.05 was considered statistically significant.
Breast cancer MDA-MB-231 cells (1×10^5/ml per well) were cultured in a 24-well plate in DMEM containing 10% FBS and 1% P/S for 3 days in the presence or absence of S. horneri active component (50 μg/ml) with or without sodium butyrate (10 and 100 μM), roscovitine (10 and 100 nM) or sulforaphane (1 and 10 nM). Upon completion of culture, the cells were detached from wells, and the number of cells was counted and statistical processing was performed in accordance with the methods described in 2-1-2 and 2-1-3.

| SMILES | proliferation of MDA-MB-231 cells in the presence of the inhibitor alone |
| --- | --- |
| CCCC(=O)[O-].[Na+] [butyrate, sodium butyrate] | suppressed |
| CC[C@H](CO)Nc1nc(NCc2ccccc2)c2ncn(C(C)C)c2n1 [roscovitine] | suppressed |
| C[S+]([O-])CCCCN=C=S (stereo not drawn) [sulforaphane] | suppressed |
